The target of series [1] is T1, Acid-sensing ion channel 3 (Homo sapiens, UniProt Q9UHC3).
T1 sequence (Q9UHC3 whole entry): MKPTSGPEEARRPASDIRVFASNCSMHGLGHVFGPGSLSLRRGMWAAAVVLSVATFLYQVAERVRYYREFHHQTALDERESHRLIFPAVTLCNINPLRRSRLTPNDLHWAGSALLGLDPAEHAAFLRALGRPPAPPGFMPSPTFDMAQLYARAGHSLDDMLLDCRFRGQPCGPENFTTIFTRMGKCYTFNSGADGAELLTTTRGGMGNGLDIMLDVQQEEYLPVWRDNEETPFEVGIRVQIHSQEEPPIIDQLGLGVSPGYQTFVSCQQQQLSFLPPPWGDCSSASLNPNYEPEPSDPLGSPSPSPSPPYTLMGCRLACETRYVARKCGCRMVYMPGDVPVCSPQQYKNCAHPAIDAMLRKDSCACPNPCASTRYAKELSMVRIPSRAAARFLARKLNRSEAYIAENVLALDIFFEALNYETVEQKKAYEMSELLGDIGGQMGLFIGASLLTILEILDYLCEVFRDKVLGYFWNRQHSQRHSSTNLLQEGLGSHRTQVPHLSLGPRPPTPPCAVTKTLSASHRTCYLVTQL
Nature of the series: Inhibition of ASIC3 assessed as inhibition of peak current by electrophysiology method.

Series [2] has as its system Rattus norvegicus. Kind of series: Induction of sedative activity in Sprague-Dawley rat at 100 mg/kg, po. The settings on record: in vivo. Also noted: dose 100 mg/kg, route oral. Format: organism-based.
Series [3] relates to Rattus norvegicus. Nature of the series: Toxicity in Sprague-Dawley rat brain assessed as lethargy at 100 mg/kg, po. In kind it is organism-based. Also noted: dose 100 mg/kg, route oral. Particulars: in vivo.
Series [4] deals with T2, Acid-sensing ion channel 1 (Homo sapiens, UniProt P78348).
T2 sequence (P78348 whole entry): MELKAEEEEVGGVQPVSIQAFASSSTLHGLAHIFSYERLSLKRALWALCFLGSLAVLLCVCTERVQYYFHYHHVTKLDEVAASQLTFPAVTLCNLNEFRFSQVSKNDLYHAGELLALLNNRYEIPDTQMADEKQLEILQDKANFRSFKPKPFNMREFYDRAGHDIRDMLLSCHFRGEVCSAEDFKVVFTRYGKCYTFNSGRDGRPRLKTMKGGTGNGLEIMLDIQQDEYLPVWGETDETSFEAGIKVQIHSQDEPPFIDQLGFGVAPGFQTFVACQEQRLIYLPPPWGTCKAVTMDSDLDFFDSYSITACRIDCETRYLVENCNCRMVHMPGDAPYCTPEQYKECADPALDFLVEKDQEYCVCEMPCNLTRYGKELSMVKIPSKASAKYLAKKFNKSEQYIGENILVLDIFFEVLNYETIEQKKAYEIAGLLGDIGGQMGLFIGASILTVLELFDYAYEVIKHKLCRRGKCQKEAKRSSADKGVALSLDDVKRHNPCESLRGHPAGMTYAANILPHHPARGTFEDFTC
Kind of series: Inhibition of ASIC1a.

Series [5] is described as follows: Plasma concentration in Sprague-Dawley rat at 100 mg/kg, po after 30 mins. In kind it is ADME, organism-based. More on the design: dose 100 mg/kg, route oral.
The nature of series [6]: Ratio of drug level in brain to plasma in […]. Format: ADME. The settings on record: rat, read-out: BPR.
Series [7] is described as follows: Ratio of drug level in brain to plasma in Sprague-Dawley rat at 100 mg/kg, po. The settings on record: read-out: BPR. More on the design: dose 100 mg/kg, route oral. Format: ADME, organism-based.
Series [8] deals with Brain. Kind of series: Drug uptake in Sprague-Dawley rat brain at 100 mg/kg, po. Also noted: dose 100 mg/kg, route oral. In kind it is ADME, organism-based. Particulars: in vivo, read-out: Drug uptake.
The subject of series [9] is Rattus norvegicus. Kind of series: Antihyperalgesic effect in complete Freund's adjuvant-induced Sprague-Dawley rat inflammatory pain model assessed as reversal of mechanical hypersensitivity at 100 mg/kg, po after 30 mins. In kind it is functional, organism-based. Also noted: dose 100 mg/kg.
Series [10] in a line: Inhibition of adrenergic receptor.
Series [11] is described as follows: Inhibition of muscarinic receptor.
Series [12] in a line: Inhibition of dopamine receptor.
The nature of series [13]: Inhibition of serotonin receptor.

pIC50: −log10 of the molar value. Activity calls are given as the source filed them. No cut-off for these calls is given here.

A word on the pIC50: it is the negative decadic logarithm of the IC50, by convention in mol/L. Consider `NCc1sc2cc(C#Cc3ccccc3)ccc2c1Cl`, for which, in [1], the negative logarithm of the IC50 (pIC50) is 5.55.
For `NCc1sc2cc(C#Cc3ccc4c(c3)CN(CC(F)F)CC4)ccc2c1Cl`, in [1], the pIC50 was 4.99.
On the same count and under the same terms, then `CC(c1cccc(C#Cc2ccc3c(Cl)c(CN)sc3c2)c1)N(C)C` (stereo unspecified), with 5.37.
On to `CC1c2cc(C#Cc3ccc4c(Cl)c(CN)sc4c3)ccc2CCN1C` (stereo unspecified), for which the pIC50 in [1] was 6.57.
Take `NCc1ccc2cc(C#Cc3ccccc3)ccc2c1`: the pIC50 in [1] is 5.32.
For `CC(C)(C)OC(=O)N1CCc2ccc(C#Cc3ccc4c(Cl)c(CN)sc4c3)cc2C1`, the negative logarithm of the IC50 (pIC50) in [1] is less than 4.30.
As to `NCc1sc2cc(C#Cc3cccc4c3CCCC4N3CCCC3)ccc2c1Cl` (stereo unspecified), the pIC50 in series [1] is 5.60.
For the molecule `NCc1sc2cc(C#Cc3ccc4c(c3)CNCC4)ccc2c1Cl`, the Activity entry in [2] and in [3] was “Toxic” in each case. Further, the pIC50 in series [4] was 6.65; in series [1], 6.66. Besides, the concentration at 0.5 h in [5] stood at 3.6 µM. For the same molecule, the Kp worked out at 15.4 in series [6] and 6 in series [7]. Moreover, the concentration in series [8] was determined as 14 µM. For the same molecule, the result in series [9] was Active.
Turning to `CN(C)C1CCc2c(C#Cc3ccc4c(Cl)c(CN)sc4c3)cccc21` (stereo unspecified), in [1], the pIC50 is 6.72.
As to `CN(C)C1CCCc2c(C#Cc3ccc4c(Cl)c(CN)sc4c3)cccc21` (stereo unspecified), the negative-log IC50 (pIC50) in series [1] was 6.64.
With `NCc1sc2cc(C#Cc3ccc4c(c3)CN(Cc3ccccc3)CC4)ccc2c1Cl`, in series [1], the pIC50 is 4.77.
For `CCN1CCc2ccc(C#Cc3ccc4c(Cl)c(CN)sc4c3)cc2C1`, in [1], the negative logarithm of the IC50 (pIC50) is 6.64.
On the same count and under the same terms, then `NCc1sc2cc(C#Cc3ccc4c(c3)CN(CC(F)(F)F)CC4)ccc2c1Cl`, with less than 4.30; and `CN1CCc2ccc(C#Cc3ccc4c(Cl)c(CN)sc4c3)cc2C1`, with 6.17.
Turning to `N=C(N)c1sc2cc(C#Cc3ccccc3)ccc2c1Cl`, in [1], the pIC50 was 5.47.
On to `CC(C)N1CCc2ccc(C#Cc3ccc4c(Cl)c(CN)sc4c3)cc2C1`, for which the pIC50 in [1] was 6.51.
On to `CC(C)C1c2cc(C#Cc3ccc4cc(C(=N)N)ccc4c3)ccc2CCN1C` (stereo unspecified), for which the pIC50 is more than 5.00 in [10]; more than 5.00 in series [11]; more than 5.00 in series [12]; 6.34 in [1]; more than 5.00 in [13]. Besides, the Kp in series [6] was determined as 2.6.
For `N=C(N)c1ccc2cc(C#Cc3ccccc3)ccc2c1`, the pIC50 in series [1] is 5.20.

The record behind these values is ChEMBL document CHEMBL1800000, “Identification of non-amidine inhibitors of acid-sensing ion channel-3 (ASIC3)” (Bioorg Med Chem Lett, 2011).
